In PubChem BioAssay (NCI):
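Briefly, cells in 96-well plates were exposed to five compound concentrations for 48 h, and endpoints were estimated by linear interpolation. GI50 is the concentration that inhibits growth by half. The concentration for full growth arrest is given as TGI.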

Experiments:
Experiment in all cases: NCI tumour cell line growth inhibition, 48 h
SF-268 CNS = system: SF-268 CNS
OVCAR-3 ovarian = system: OVCAR-3 ovarian
HCT-116 colon = system: HCT-116 colon
SW-620 colon = system: SW-620 colon
SF-539 CNS = system: SF-539 CNS
HCT-15 colon = system: HCT-15 colon
786-0 renal = system: 786-0 renal
ACHN renal = system: ACHN renal
BT-549 breast = system: BT-549 breast
SR leukemia = system: SR leukemia

Cc1c2ccncc2c(C)c2c1[nH]c1ccc(OCCN(C)C)cc12
TGI (SF-268 CNS): 0.919 µM
TGI (OVCAR-3 ovarian): 1.07 µM
TGI (HCT-116 colon): 0.256 µM
TGI (SW-620 colon): 0.406 µM
TGI (SF-539 CNS): 2.38 µM
TGI (HCT-15 colon): 0.706 µM

Cc1c([C@H](C)[C@@H]2NC[C@@H](C)C[C@H]2O)ccc2c1C[C@H]1[C@H]2CC=C2C[C@@H](O)CC[C@@]21C
TGI (786-0 renal): 37.9 µM
TGI (SF-268 CNS): > 100 µM
TGI (OVCAR-3 ovarian): 41.5 µM
TGI (HCT-116 colon): 30.6 µM
TGI (ACHN renal): 37.6 µM
TGI (SW-620 colon): > 100 µM
TGI (BT-549 breast): 54.5 µM
TGI (HCT-15 colon): 57 µM

COc1cc(N(CCC#N)CCC#N)ccc1/C=N\NC(=O)c1ccc(C)cc1
TGI (786-0 renal): > 100 µM
TGI (SF-268 CNS): > 100 µM
TGI (OVCAR-3 ovarian): > 100 µM
TGI (HCT-116 colon): > 100 µM
TGI (ACHN renal): > 100 µM
TGI (SW-620 colon): > 100 µM
TGI (BT-549 breast): > 100 µM
TGI (SF-539 CNS): > 100 µM
TGI (HCT-15 colon): > 100 µM

[N-]=[N+]=NCC(O)Cn1cnc2c(NC(=O)c3ccccc3)ncnc21 (stereo not drawn)
TGI (786-0 renal): > 100 µM
TGI (SF-268 CNS): > 100 µM
TGI (HCT-116 colon): > 100 µM
TGI (ACHN renal): > 100 µM
TGI (SW-620 colon): > 100 µM
TGI (SF-539 CNS): > 100 µM
TGI (HCT-15 colon): > 100 µM

O=c1[nH]c(=O)n(C2OC(CO)C(O)C2O)cc1OCCCc1ccccc1 (stereo not drawn)
TGI (786-0 renal): > 100 µM
TGI (SF-268 CNS): > 100 µM
TGI (OVCAR-3 ovarian): > 100 µM
TGI (SR leukemia): > 100 µM
TGI (HCT-116 colon): > 100 µM
TGI (ACHN renal): > 100 µM
TGI (SW-620 colon): > 100 µM
TGI (SF-539 CNS): > 100 µM
TGI (HCT-15 colon): > 100 µM

COC(=O)Nc1nc2ccc(NC(=O)c3ccc(I)cc3)cc2[nH]1
TGI (786-0 renal): > 100 µM
TGI (SF-268 CNS): > 100 µM
TGI (OVCAR-3 ovarian): > 100 µM
TGI (HCT-116 colon): > 100 µM
TGI (ACHN renal): > 100 µM
TGI (SW-620 colon): > 100 µM
TGI (BT-549 breast): > 100 µM
TGI (SF-539 CNS): > 100 µM
TGI (HCT-15 colon): > 100 µM

CC(CNC(N)=O)NC(N)=O (stereo not drawn)
TGI (786-0 renal): > 100 µM
TGI (SF-268 CNS): > 100 µM
TGI (OVCAR-3 ovarian): > 100 µM
TGI (HCT-116 colon): > 100 µM
TGI (ACHN renal): > 100 µM
TGI (SW-620 colon): > 100 µM
TGI (BT-549 breast): > 100 µM
TGI (SF-539 CNS): > 100 µM
TGI (HCT-15 colon): > 100 µM

CC1(C)C=C(/C=N/Nc2ccccc2)C(C#N)=C(O)C1(C#N)C#N
TGI (786-0 renal): > 100 µM
TGI (SF-268 CNS): > 100 µM
TGI (OVCAR-3 ovarian): > 100 µM
TGI (SR leukemia): > 100 µM
TGI (HCT-116 colon): > 100 µM
TGI (ACHN renal): > 100 µM
TGI (SW-620 colon): > 100 µM
TGI (SF-539 CNS): > 100 µM

O=C1NC(Cc2ccc(O)cc2)C(=O)NC1Cc1ccc(O)cc1 (stereo not drawn)
TGI (786-0 renal): > 100 µM
TGI (SF-268 CNS): > 100 µM
TGI (OVCAR-3 ovarian): > 100 µM
TGI (SR leukemia): > 100 µM
TGI (HCT-116 colon): > 100 µM
TGI (ACHN renal): > 100 µM
TGI (SW-620 colon): > 100 µM
TGI (SF-539 CNS): > 100 µM
TGI (HCT-15 colon): > 100 µM

CC1(C)O[C@@H](C[C@]2(C#N)C[C@H](CCl)OC(C)(C)O2)C[C@@H](C#N)O1
TGI (786-0 renal): > 100 µM
TGI (SF-268 CNS): > 100 µM
TGI (OVCAR-3 ovarian): > 100 µM
TGI (SR leukemia): > 100 µM
TGI (HCT-116 colon): > 100 µM
TGI (ACHN renal): > 100 µM
TGI (SW-620 colon): > 100 µM
TGI (SF-539 CNS): > 100 µM
TGI (HCT-15 colon): > 100 µM

CCCCCCCCC#CCCCCCCCCCC[C@@H]1C(=O)O[C@H](C)[C@@H]1O (tested in a mixture with another compound)
TGI (786-0 renal): 31.4 µM
TGI (SF-268 CNS): 30.4 µM
TGI (OVCAR-3 ovarian): 38.6 µM
TGI (HCT-116 colon): > 100 µM
TGI (ACHN renal): 45.2 µM
TGI (SW-620 colon): 36.4 µM
TGI (BT-549 breast): 38.5 µM
TGI (SF-539 CNS): 42.1 µM
TGI (HCT-15 colon): > 100 µM

O=C1C2C=CC(n3[nH]c(=O)n(Cc4ccccc4)c3=O)CC2C(=O)N1c1ccc(Br)cc1 (stereo not drawn)
TGI (786-0 renal): > 100 µM
TGI (SF-268 CNS): > 100 µM
TGI (OVCAR-3 ovarian): > 100 µM
TGI (SR leukemia): > 100 µM
TGI (HCT-116 colon): > 100 µM
TGI (ACHN renal): > 100 µM
TGI (SW-620 colon): > 100 µM
TGI (SF-539 CNS): > 100 µM
TGI (HCT-15 colon): > 100 µM

CCOC(=O)C1=C(O)c2ccc(C)cc2C(=O)C1=O
TGI (786-0 renal): > 100 µM
TGI (SF-268 CNS): > 100 µM
TGI (OVCAR-3 ovarian): > 100 µM
TGI (SR leukemia): > 100 µM
TGI (HCT-116 colon): > 100 µM
TGI (ACHN renal): > 100 µM
TGI (SW-620 colon): > 100 µM
TGI (SF-539 CNS): > 100 µM
TGI (HCT-15 colon): > 100 µM

CC(=O)C(C)(C)CCC(C)(C)C(C)=O
TGI (786-0 renal): > 100 µM
TGI (SF-268 CNS): > 100 µM
TGI (SR leukemia): > 100 µM
TGI (HCT-116 colon): > 100 µM
TGI (ACHN renal): > 100 µM
TGI (SW-620 colon): > 100 µM
TGI (BT-549 breast): > 100 µM
TGI (SF-539 CNS): > 100 µM
TGI (HCT-15 colon): > 100 µM

N#Cc1c(N)nc2c3c1NC(=O)C(C(N)=O)C3c1ccccc1O2 (stereo not drawn)
TGI (786-0 renal): > 100 µM
TGI (SF-268 CNS): > 100 µM
TGI (OVCAR-3 ovarian): > 100 µM
TGI (SR leukemia): > 100 µM
TGI (HCT-116 colon): > 100 µM
TGI (ACHN renal): > 100 µM
TGI (SW-620 colon): > 100 µM
TGI (SF-539 CNS): > 100 µM
TGI (HCT-15 colon): > 100 µM

CC(=O)OCC1OC(n2c(C)c(C)c(C)c(C#N)c2=S)C(OC(C)=O)C(OC(C)=O)C1OC(C)=O (stereo not drawn)
TGI (786-0 renal): 93.1 µM
TGI (SF-268 CNS): > 100 µM
TGI (OVCAR-3 ovarian): > 100 µM
TGI (SR leukemia): > 100 µM
TGI (HCT-116 colon): 67.7 µM
TGI (ACHN renal): > 100 µM
TGI (SW-620 colon): > 100 µM
TGI (SF-539 CNS): > 100 µM
TGI (HCT-15 colon): > 100 µM

COc1ccc2cc(C(C)C(=O)N3C(=O)OCC3(C)C)ccc2c1 (stereo not drawn)
TGI (786-0 renal): > 100 µM
TGI (SF-268 CNS): > 100 µM
TGI (OVCAR-3 ovarian): > 100 µM
TGI (SR leukemia): > 100 µM
TGI (HCT-116 colon): > 100 µM
TGI (ACHN renal): > 100 µM
TGI (SW-620 colon): > 100 µM
TGI (BT-549 breast): > 100 µM
TGI (HCT-15 colon): > 100 µM

C=C1C(C)C2C(Cc3ccccc3)NC(=O)C23OC(=O)/C=C\CC(=O)CCC(C)C/C=C/C3C1O (stereo not drawn)
TGI (SF-268 CNS): 7.48 µM
GI50 (OVCAR-3 ovarian): 0.384 µM
TGI (OVCAR-3 ovarian): 7.9 µM
TGI (HCT-116 colon): 7.35 µM
TGI (SW-620 colon): 3.82 µM
TGI (SF-539 CNS): 4.39 µM
TGI (HCT-15 colon): 4.41 µM
